# Measurements taken from patent EP3727043B1 (Golden Gait Biotech, S.L., priority 2017, dated 2019).
# Where two headings read alike, the source gives them in different places.
# Columns and labels:
# [1] = test system: patients with idiopathic PD and levodopa induced dyskinesias (LIDs)
# Method: At the time the study was performed (2009), there was no FDA accepted instrument for measuring treatment efficacy for LIDs. Therefore, several secondary objectives were utilized to assess efficacy including the Unified Dyskinesia Rating Scale (UDysRS).
# A total of 65 male and female subjects with idiopathic PD with LIDs were randomized in the study. The study consisted of 4 phases (FIG. 6A): screening phase (up to 3 weeks), double-blind treatment phase (10 weeks), taper phase (2 weeks), and follow-up phase (2 weeks). The approximate duration of the study for each subject was 17 weeks. […] During the double-blind treatment phase, dosing was begun at Visit 0 at 1 mg every 6 hours (total daily dose [TDD] = 4 mg/day) and escalated upwards at 2-week intervals as follows: 2 mg every 6 hours (TDD = 8 mg/day) at Visit 1 (Week 2); 4 mg every 6 hours (TDD = 16 mg/day) at Visit 2 (Week 4); 6 mg every 6 hours (TDD = 24 mg/day) at Visit 3 (Week 6). Subjects were maintained on 24 mg/day for 4 weeks. The subsequent taper phase (2 weeks total), beginning at Visit 4 (Week 10), consisted of 9 days of drug taper and 5 days off drug prior to Visit 5 (final safety visit). […] Ondansetron was provided by the sponsor and dispensed with each dose escalation step with instructions to use it for nausea and vomiting only during the first 4 days following dose initiation or escalation. […] No other dose down-titration was allowed. Table 5. Dose Escalation Schedule
# A total of 65 patients with idiopathic PD and levodopa induced dyskinesias (LIDs) were randomized. Patients were required to have a diagnosis of idiopathic PD and be within a Hoehn & Yahr Stage II - IV while in a peak "ON" state(levodopa in a therapeutic range). They had to have moderate to severely disabling LIDs for at least 25% of the waking day, as determined by Questions 32 and 33 in Part II of the UPDRS and a Mini-Mental State Examination (MMSE) score of ≥26. Patients with atypical Parkinson disorders, prior deep brain stimulation (DBS), unstable angina, a history of ventricular arrhythmias, or active peptic ulcer or a history of schizophrenia, schizoaffective disorder, or bipolar disease were excluded. Patients who actively smoked were also excluded. Table 9: Demographics
# The drug, or a placebo identical in appearance and packaging, was administered orally 4 times a day in a blinded fashion. Patients were examined while in an "ON" state, when levodopa was in a therapeutic range. During the treatment phase, dosing was begun at 1 mg every 6 hours (total daily dose=4 mg/day) and escalated upwards at 2-week intervals as follows: 2 mg every 6 hours at Visit 1; 4 mg every 6 hours at Visit 2; 6 mg every 6 hours at Visit 3. Patients were maintained on 24 mg/day for 4 weeks. All patients, study site personnel, raters and the sponsor were blinded to treatment assignment.
# The original UPDRS scale was used. […] In the UPDRS Part II, Question 13 is on Falling unrelated to Freezing. […] In Part II, Question 14 is on Freezing when Walking. This is a 5-point item and has two variables freezing and falls. […] Questions 13 and 14 were compared separately (Table 11). […] Table 10: UPDRS Part II (ADL), UPDRS Part III (Motor Examination)
# LIDs were assessed by the UDysRS, the main measure of LIDs (Table 12). […] The study was conducted in accordance with the Declaration of Helsinki and Good Clinical Practice Guidelines. All sites received approval from an institutional review board and written informed consent was obtained from each patient prior to participation. Table 12. Unified Dyskinesia Rating Scale (UDysRS)
# All hypotheses were tested using 2-sided tests with alpha set at the 0.050 level of significance. In general, efficacy data were summarized by treatment group, and safety data were summarized by treatment group and overall.
# [2] = test system: patients with idiopathic PD and levodopa induced dyskinesias (LIDs); remark: listed apart in the source
# Method: Efficacy was measured with the Unified Dyskinesia Rating Scale (UDysRS), a semi- quantitative assessment, FDA-validated instrument to assess gait, balance and dyskinesia in PD. […] Dosing was begun at 1 mg every 6 hours to a final dose of 24 mg per day.
# All hypotheses were tested using 2-sided tests with alpha set at the 0.050 level of significance. In general, efficacy data were summarized by treatment group, and safety data were summarized by treatment group and overall. In all analyses, assumptions such as normality and homogeneity of variance were examined prior to conducting the proposed parametric statistical procedures. Categorical variables were analyzed by Fisher's exact 2- tailed test and continuous variables were tested under 2-sample t-tests. The equality of variances was examined using an F-test before applying the 2-sample t-test.
# [3] = oral administration of capsules
# clinical = conditions: human, plasma, po
# [4] = Baseline to Week 10, 30 NP002 patients
# [5] = Baseline to Week 10, minus = improvement, 30 NP002 patients
# [6] = Baseline to Week 10, plus = worsening, 30 NP002 patients
# [7] = NP002 Patients Baseline (before treatment)
# [8] = NP002 patients at 10 Weeks, up to 24 mg/day orally
# [9] = NP002 patients at Baseline (before treatment)
smiles,measurement,setting,value
"CN1CCCC1c1cccnc1.O=C(O)C(O)C(O)C(=O)O (centres unmarked) [NP002, Nicotine Bitartrate]","UPDRS Part II (ADL) and Part III (Motor Examination) after treatment, NP002 vs placebo",[1]; 10 weeks,no significant differences
same,"Falls (UPDRS Part II Question 13), number of patients with change -3","[1]; Baseline to Week 10, 5-point scale, minus = improvement, 30 NP002 patients",1
same,"FOG (UPDRS Part II Question 14), number of patients with No Change",[1]; [4],17
same,"FOG (UPDRS Part II Question 14), number of patients with change +2",[1]; [4],0
same,"FOG (UPDRS Part II Question 14), number of patients with change +3",[1]; [4],0
same,"FOG (UPDRS Part II Question 14), number of patients with change -1",[1]; [4],10
same,"FOG (UPDRS Part II Question 14), number of patients with change -2",[1]; [4],2
same,"Falls (UPDRS Part II Question 13), number of patients with No Change",[1]; [4],16
same,"Falls (UPDRS Part II Question 13), number of patients with change +2",[1]; [4],0
same,"Falls (UPDRS Part II Question 13), number of patients with change +3",[1]; [4],0
same,"Falls (UPDRS Part II Question 13), number of patients with change -1",[1]; [4],7
same,"Falls (UPDRS Part II Question 13), number of patients with change -2",[1]; [4],5
same,"Pull Test (Item 30 of the UPDRS Part III), number of patients with No Change",[1]; [4],19
same,"Pull Test (Item 30 of the UPDRS Part III), number of patients with change +2",[1]; [4],0
same,"Pull Test (Item 30 of the UPDRS Part III), number of patients with change +3",[1]; [4],0
same,"Pull Test (Item 30 of the UPDRS Part III), number of patients with change -1",[1]; [4],5
same,"Pull Test (Item 30 of the UPDRS Part III), number of patients with change -2",[1]; [4],5
same,"FOG (UPDRS Part II Question 14), number of patients with change -3",[1]; [5],0
same,"Pull Test (Item 30 of the UPDRS Part III), number of patients with change -3",[1]; [5],0
same,"FOG (UPDRS Part II Question 14), number of patients with change +1",[1]; [6],1
same,"Falls (UPDRS Part II Question 13), number of patients with change +1",[1]; [6],1
same,"Pull Test (Item 30 of the UPDRS Part III), number of patients with change +1",[1]; [6],1
same,patients with a reduction in falls,"[1]; Fourteen of 30 NP002 patients, p=0.00857 vs placebo",47%
same,Total Score UDysRS,[1]; [7],51.7 +/-16.9
same,UDysRS Evaluation of Dyskinesias on 7 Body Parts,[1]; [7],13.5 +/-5.4
same,UDysRS Evaluation of Dyskinesias on Ambulation,[1]; [7],9.5 +/- 6.0
same,UDysRS Evaluation of Dyskinesias on Communication,[1]; [7],10.5 +/-4.8
same,UDysRS Evaluation of Dyskinesias on Dressing,[1]; [7],11.3 +/-6.2
same,UDysRS Evaluation of Dyskinesias on Drinking,[1]; [7],9.1 +/- 5.6
same,Total Score UDysRS,[1]; NP002 Patients Week 10,36.4 +/-16.1
same,UDysRS Evaluation of Dyskinesias on 7 Body Parts,[1]; NP002 Patients Week 10,8.5 +/- 5.4
same,UDysRS Evaluation of Dyskinesias on Ambulation,[1]; NP002 Patients Week 10,5.1 +/- 5.3
same,UDysRS Evaluation of Dyskinesias on Communication,[1]; NP002 Patients Week 10,7.0 +/- 5.0
same,UDysRS Evaluation of Dyskinesias on Dressing,[1]; NP002 Patients Week 10,6.9 +/- 5.5
same,UDysRS Evaluation of Dyskinesias on Drinking,[1]; NP002 Patients Week 10,5.3 +/- 5.0
same,UPDRS II,[1]; [8],10.1 ± 5.3
same,UPDRS III,[1]; [8],17.3 ± 10.6
same,UPDRS II,[1]; [9],13.1 ± 6.0
same,UPDRS III,[1]; [9],20.0 ± 8.8
same,"Difference in LS Means 95% Confidence Interval, UPDRS Part III","[1]; NP002 versus Placebo, p-value 0.337","-18.3 ± 1.8 (-5.8, 2.0)"
same,"Difference in LS Means 95% Confidence Interval, UPDRS Part II","[1]; NP002 versus Placebo, p-value 0.631","10.1 ± 0.96 (-3.2, 2.0)"
same,"UDysRS Evaluation of Dyskinesias on Ambulation, Difference LS Means","[1]; NP002 vs placebo, p-value 0.011*",-3.7 +/-1.9
same,"UDysRS Evaluation of Dyskinesias on 7 Body Parts, Difference LS Means","[1]; NP002 vs placebo, p-value 0.062",-2.8 +/-2.6
same,"Total Score UDysRS, Difference LS Means","[1]; NP002 vs placebo, p-value 0.092",-6.7 +/-4.1
same,"UDysRS Evaluation of Dyskinesias on Dressing, Difference LS Means","[1]; NP002 vs placebo, p-value 0.139",-2.1 +/-1.4
same,"UDysRS Evaluation of Dyskinesias on Drinking, Difference LS Means","[1]; NP002 vs placebo, p-value 0.171",-2.4 +/-1.7
same,"UDysRS Evaluation of Dyskinesias on Communication, Difference LS Means","[1]; NP002 vs placebo, p-value 0.189",-1.9 +/-1.4
same,patients with a reduction in retropulsion,"[1]; Ten of 30 NP002 patients, p=0.0228 vs placebo",33.3%
same,patients with a reduction in FOG,"[1]; Twelve of 30 NP002 patients, p=0.04301 vs placebo",40%
same,"PGI-C responders (subjects with a score of 1, 2, or 3)","[1]; Visit 4 (Week 10), 21 responders, p = 0.0048 vs placebo",77.8%
same,UPDRS II Change,[1]; baseline to 10 weeks,2.8 + 5.2
same,UPDRS III Change,[1]; baseline to 10 weeks,2.0 + 7.5
same,patient- and physician-rated assessments of efficacy versus placebo,"[1]; human, in vivo",superior to placebo
same,patients with either a reduction or absence of FOG during the active phase,"[1]; human, in vivo",~73%
same,patients with either a reduction or absence of falls during the active phase,"[1]; human, in vivo",~87%
same,patients with no FOG during the study,[1]; of 30 NP002 patients,10
same,patients with no falls during the study,[1]; of 30 NP002 patients,12
same,"reduction (improvement) in the effect of LIDs on ambulation, UDysRS ambulation subtest",[1]; p=0.011 vs placebo,46%
same,"reduction in LIDs, Total UDysRS",[1]; p=0.092 vs placebo,39%
same,Adverse Event: Constipation,[2]; N=35,5 (14.3) Number (%)
same,Adverse Event: Diarrhea,[2]; N=35,2 (5.7) Number (%)
same,Adverse Event: Dizziness,[2]; N=35,7 (20.0) Number (%)
same,Adverse Event: Fatigue,[2]; N=35,3 (8.6) Number (%)
same,Adverse Event: Headache,[2]; N=35,2 (5.7) Number (%)
same,Adverse Event: Insomnia,[2]; N=35,0 (0.0) Number (%)
same,Adverse Event: Nausea,[2]; N=35,13 (37.1) Number (%)
same,Adverse Event: Nightmare,[2]; N=35,2 (5.7) Number (%)
same,Adverse Event: Pain,[2]; N=35,3 (8.6) Number (%)
same,Adverse Event: Pain in extremity,[2]; N=35,2 (5.7) Number (%)
same,Adverse Event: Tremor,[2]; N=35,2 (5.7) Number (%)
same,Adverse Event: Vomiting,[2]; N=35,4 (11.4) Number (%)
same,Number (%) of subject with any AE,[2]; N=35,26 (74.3) Number (%)
same,Serum cotinine levels,[2]; compliance check,paralleled dosing of nicotine
same,adverse events reported,[2]; number of events among NP002 patients,45
same,Primary reason for study discontinuation: Adverse event,[2]; of 35 randomized,6 (17.1) n (%)
same,Primary reason for study discontinuation: Protocol violation,[2]; of 35 randomized,2 (5.7) n (%)
same,Subjects who completed study per protocol,[2]; of 35 randomized,25 (71.4) n (%)
same,Subjects who discontinued the study,[2]; of 35 randomized,10 (28.6) n (%)
same,subjects who completed the study,[2]; of 35 randomized,25 subjects
same,subjects who withdrew because of AEs,[2]; of 35 randomized,6 subjects
same,subjects who withdrew because of protocol violations,[2]; of 35 randomized,2 subjects
same,subjects who withdrew from the study,[2]; of 35 randomized,10 subjects
same,Primary reason for study discontinuation: Other,"[2]; subject going on vacation, of 35 randomized",2 (5.7) n (%)
same,Subjects who required dose reduction or discontinuation of study treatment,"[2]; treated subjects with any adverse events with action taken = reduced/discontinued study drug, of 35 randomized",7 (20.0) n (%)
same,time by which the plasma concentration of nicotine returns close to baseline,[3],~ 6 hours
same,Tmax,clinical,~1.5 h
